ChEMBL document CHEMBL5038569, “Targeting RECQL5 Functions, by a Small Molecule, Selectively Kills Breast Cancer in Vitro and in Vivo” (J Med Chem, 2021)
Activity calls are given as the source filed them.

Tests used:
MCF7 [1] = assay: Cytotoxicity against human MCF7 cells with shRNA-mediated RECQL1 depletion assessed as reduction in cell viability at 6 to 25 uM measured after 8 to 10 days by clonogenic survival assay; type: functional, cell-based; conditions: dose 6-25 µM, time 8-10 day
T47D [2] = assay: Induction of DNA damage in human T47D cells expressing wild type RECQL5 assessed as double strand breaks by measuring increase in gamma-H2AX foci formation incubated for 24 hrs by immunofluorescence microscopic analysis; type: functional, cell-based; conditions: dose 0-20 µM
[3] = Selectivity ratio of IC20 for cytotoxicity against RECQL5 knock out human MCF7 cells to IC20 for cytotoxicity against human MCF7 cells expressing RECQL5-WT; type: functional
MCF7 [4] = assay: Effect on NHEJ-mediated double strand break repair in human MCF7 cells expressing wild type RECQL5 assessed as accumulation of KU80 on chromatin at 20 uM measured up to 24 hrs by Western blot analysis; type: cell-based; conditions: time hrs <=24
T47D [5] = assay: Inhibition of homologous recombinant repair in human T47D cells expressing wild type RECQL5 assessed as stabilization of RAD51-RECQL5 interaction by measuring increase in RAD51 foci formation at 20 uM measured after 4 to 24 hrs by immunofluorescence microscopic analysis; type: functional, cell-based; conditions: time 4-24 hrs
[6] = Chronic toxicity in […] mouse assessed as change in behavior at 100 mg/kg, po administered as single dose via gavage measured for 30 days; type: organism-based; conditions: in vivo, 720 h, time 30 day
MCF7 [7] = assay: Cytotoxicity against RECQL5 knock out human MCF7 cells expressing wild type RECQL5-FLAG assessed as reduction in colony formation at 10 uM measured after 8 to 10 days by clonogenic survival assay; type: functional, cell-based; conditions: time 8-10 day
MCF7 [8] = assay: Induction of DNA damage in human MCF7 cells expressing wild type RECQL5 assessed as double strand breaks by measuring increase in phosphorylation of ATR at S428 residue at 20 uM measured up to 24 hrs by Western blot analysis; type: functional, cell-based; conditions: time hrs <=24
MCF7 [9] = assay: Cytotoxicity against RECQL5 knock out human MCF7 cells assessed as inhibition of colony formation measured after 8 to 10 days by clonogenic survival assay; type: functional, cell-based
MCF7 [10] = assay: Cytotoxicity against human MCF7 cells expressing RECQL5 assessed as cell growth inhibition measured after 72 hrs by MTT assay; type: functional
MCF7 [11] = assay: Induction of cell sensitization to cisplatin in cisplatin-resistant human MCF-7 cells assessed as reduction in colony formation at 5 uM measured after 8 to 10 days by clonogenic survival assay; type: functional, cell-based; conditions: time 8-10 day
MCF7 [12] = assay: Cytotoxicity against human MCF7 cells with shRNA-mediated BLM depletion assessed as reduction in cell viability at 6 to 25 uM measured after 8 to 10 days by clonogenic survival assay; type: functional, cell-based; conditions: dose 6-25 µM, time 8-10 day
MCF7 [13] = assay: Inhibition of homologous recombinant repair in RECQL5 knock out human MCF7 cells assessed as stabilization of RAD51-RECQL5 interaction by measuring increase in RAD51 foci formation at 20 uM measured after 4 to 24 hrs by immunofluorescence microscopic analysis; type: functional, cell-based; conditions: time 4-24 hrs
MCF7 [14] = assay: Reversal of RECQL5 knock out resistance phenotype in human MCF7 cells expressing RFP assessed as reduction in cell viability at 6 to 25 uM measured after 72 hrs by MTT assay; type: functional, cell-based; conditions: dose 6-25 µM
MCF7 [15] = assay: Cytotoxicity against human MCF7 cells expressing wild type RECQL5 assessed as cell growth inhibition measured after 72 hrs by MTT assay; type: functional; conditions: dose 6-50 µM
MCF7 [16] = assay: Induction of mitotic catastrophe phenotype in human cisplatin-resistant MCF7 cells assessed as micronucleus formation at 20 uM pretreated with cisplatin for 8 hrs followed by compound addition and measured after 24 hrs by immunofluorescence microscopic analysis; type: functional, cell-based
U2OS = assay: Induction of apoptosis in RECQL5 depleted human U2OS cells assessed as cell death measured after 72 hrs by propidium iodide/RNase A staining based flow cytometric analysis; type: functional
T47D [17] = assay: Induction of DNA damage in RECQL5 knock out human T47D cells assessed as double strand breaks by measuring increase in gamma-H2AX foci formation incubated for 24 hrs by immunofluorescence microscopic analysis; type: functional, cell-based
T47D [18] = assay: Inhibition of homologous recombinant repair in RECQL5 knock out human T47D cells assessed as stabilization of RAD51-RECQL5 interaction by measuring increase in RAD51 foci formation at 20 uM measured after 4 to 24 hrs by immunofluorescence microscopic analysis; type: functional, cell-based; conditions: time 4-24 hrs
MCF7 [19] = assay: Induction of DNA damage in human MCF7 cells expressing wild type RECQL5 assessed as double strand breaks by measuring increase in gamma-H2AX foci formation incubated for 24 hrs by immunofluorescence microscopic analysis; type: functional, cell-based; conditions: dose 0-20 µM
MCF7 [20] = assay: Induction of cell sensitization to cisplatin in human MCF-7 cells assessed as reduction in colony formation at 5 uM measured after 8 to 10 days by clonogenic survival assay; type: functional, cell-based; conditions: time 8-10 day
MCF7 [21] = assay: Stabilization of RECQL5-RAD51 complex in RECQL5 knock out human MCF7 cells expressing wild type RECQL5-FLAG assessed as increase in RAD51-RECQL5-FLAG pull down at 20 uM measured after 8 hrs by coimmunoprecipitation assay; type: cell-based
MCF7 [22] = assay: Cytotoxicity against RECQL5 knock out human MCF7 cells assessed as cell growth inhibition measured after 72 hrs by MTT assay; type: functional; conditions: dose 6-50 µM
[23] = Toxicity in nude mouse xenografted with human MCF7 cells assessed as morphological changes in liver at 50 mg/kg, po administered via oral gavage and measured after 30 days; type: organism-based; conditions: in vivo, 720 h, time 30 day
[24] = Toxicity in nude mouse xenografted with human MCF7 cells assessed as morphological changes in heart at 50 mg/kg, po administered via oral gavage and measured after 30 days; type: organism-based; conditions: in vivo, 720 h, time 30 day
MCF7 [25] = assay: Stabilization of RECQL5-RAD51 complex in human MCF7 cells expressing wild type RECQL5 assessed as increase in accumulation of chromatin-bound RECQL5 and RAD51 at 20 uM measured after 4 to 24 hrs by Western blot analysis; type: cell-based; conditions: time 4-24 hrs, TDE = time-dependent effect
MCF7 [26] = assay: Cytotoxicity against human MCF7 cells expressing RECQL5-RFP K58M helicase dead mutant assessed as sensitizing activity by measuring colony survival at 5 to 20 uM measured after 8 to 10 days by clonogenic survival assay; type: functional, cell-based; conditions: dose 5-20 µM, time 8-10 day
[27] = Cytotoxicity against human MCF-10A cells expressing RECQL5 assessed as cell growth inhibition measured after 72 hrs by MTT assay; type: toxicity, cell-based
MCF7 [28] = assay: Effect on homologous recombinant repair in human MCF7 cells expressing wild type RECQL5 assessed as accumulation of NBS1 protein on chromatin at 20 uM incubated for 4 to 24 hrs by Western blot analysis; type: functional, cell-based; conditions: time 4-24 hrs, TDE = time-dependent effect
MCF7 [29] = assay: Induction of DNA damage in human MCF7 cells expressing wild type RECQL5 assessed as double strand breaks by measuring increase in phosphorylation of CHK2 at T68 residue at 20 uM measured up to 24 hrs by Western blot analysis; type: functional, cell-based; conditions: time hrs <=24
[30] = Toxicity in […] mouse assessed as fold change in SGPT level at 100 mg/kg, po administered as single dose via gavage measured after 30 days relative to control; type: organism-based; conditions: in vivo, 720 h, time 30 day
MCF7 [31] = assay: Effect on homologous recombinant repair in RECQL5 knock out human MCF7 cells assessed as accumulation of NBS1 protein on chromatin at 20 uM incubated for 4 to 24 hrs by Western blot analysis; type: functional, cell-based; conditions: time 4-24 hrs

O=C(Nc1cc(C(F)(F)F)cc(C(F)(F)F)c1)N[C@@H](c1ccccc1)c1nnc(SCc2ccccc2)o1
19.6 µM: IC50 (MCF7 [9])
active: Activity (MCF7 [1]) | Activity (T47D [2]) Dose-Dependent Effect | inhibition (T47D [5]) | Activity (MCF7 [7]) | Activity (MCF7 [8]) | Activity (MCF7 [11]) | Activity (MCF7 [12]) | Activity (MCF7 [16]) | Activity (MCF7 [19]) Dose-Dependent Effect | Activity (MCF7 [20]) | Activity (MCF7 [21]) | Activity (MCF7 [25]) Tde | Activity (MCF7 [26]) | Activity (MCF7 [28]) Tde | Activity (MCF7 [29])
8.2 µM: IC20 (MCF7 [15])
8.4 µM: IC20 (MCF7 [10])
2.7: selectivity ratio [3]
Non-Toxic: Activity [6] | Activity [23] | Activity [24]
inactive: Activity (MCF7 [4]) | inhibition (MCF7 [13]) | Activity (MCF7 [14]) | Activity (U2OS) | Activity (T47D [17]) | inhibition (T47D [18]) | Activity (MCF7 [31])
33.4 µM: IC20 at 72 h [27]
22.3 µM: IC20 (MCF7 [22])
0.92: fold change (FC) [30]
